According to patent US7858621B2 (Amorepacific Corporation, priority 2006, dated 2010):
Read-outs that look alike come from different tables or passages of the source.

Tests used:
[1] = Metabolic stability test in human intestinal microsomes; type: in vitro ADME; details: 5 μg/mL, 1 mg/mL protein, 2 hr reaction time
Experimental: (§1) 1) Metabolic Stability Test
(§2) Diluted sample (final 5 μg/mL in 0.1 M potassium phosphate buffer, pH 7.4) was pre-incubated with cofactors (glucose-6-phosphate 3.3 mM, NADPH 1.3 mM, MgCl2 0.16 mM, glucose-6-phosphate dehydrogenase 0.4 U/mL final) and enzyme reaction was initiated with the addition of human intestinal (1 mg/mL protein) or rat liver microsomes (0.5 mg/mL protein). Reaction was terminated with 2× volume of cold acetonitrile after 1 min (initial point) or 30 min (reacted sample) incubation. In case of human intestinal microsomes, 2 hr reaction time was employed. Reaction mixture was undergone extraction in shaking bath over 20 min, after which resultant supernatant was separated by centrifugation. Area of parent compound peak was analyzed in the supernatant using HPLC-UV method and the extent of metabolism was shown as the decreased compound peak area (%) from initial point.

[2] = Metabolic stability test in rat liver microsomes; type: in vitro ADME; details: 5 μg/mL, 0.5 mg/mL protein, 30 min incubation
Experimental: as §1, §2

vanilloid receptor = target: T1, vanilloid receptor (Rattus norvegicus, UniProt O35433); experiment: 45Ca influx test in cultured neonatal rat DRG neurons, inhibition of capsaicin response; type: cell-based
T1 construct: DRG nerve cells from the primary culture of 2 days were equilibrated; endogenous in cells; host or cells: primary culture of dorsal root ganglion neurons from neonatal SD rats
Procedure, shortened: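 45Ca influx measured by scintillation counting of SDS-eluted neurons after 10 min at room temperature with test compound, 0.5 μM capsaicin (final) and 10 μCi/ml 45Ca in Ca/Mg-free HEPES-HBSS pH 7.4. Cells: primary DRG neurons from newborn SD rats, cultured 2 days with NGF and Ara-C.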

[3] = PK study in rats, single oral administration; type: in vivo; design: AUC: concentration or dose not given beside the values; details: rat, plasma
Experimental: Pharmacokinetics of compounds in rats were analyzed using the following experiment. Rats were fasted overnight prior to administration and until approximately 4 hours after administration. Rats were given a single oral administration of compound at same dose. Administration volume was 10 ml/kg. Blood samples were collected from the retro-orbital sinus at various times over the following 7 hrs. Immediately after each collection, plasmas were separated from blood cells by centrifugation and stored at −20° C. until the analysis was performed. The plasma samples were analyzed using a reverse phase high-performance chromatography (HPLC) method.

[4] = neonatal rat DRG neurons, capsaicin 0.5 μM, 45Ca influx, read-out: Antagonist Calcium Uptake Test (IC50)
[5] = Table 3, unit inferred, read-out: IC50

T1 sequence (O35433 whole entry): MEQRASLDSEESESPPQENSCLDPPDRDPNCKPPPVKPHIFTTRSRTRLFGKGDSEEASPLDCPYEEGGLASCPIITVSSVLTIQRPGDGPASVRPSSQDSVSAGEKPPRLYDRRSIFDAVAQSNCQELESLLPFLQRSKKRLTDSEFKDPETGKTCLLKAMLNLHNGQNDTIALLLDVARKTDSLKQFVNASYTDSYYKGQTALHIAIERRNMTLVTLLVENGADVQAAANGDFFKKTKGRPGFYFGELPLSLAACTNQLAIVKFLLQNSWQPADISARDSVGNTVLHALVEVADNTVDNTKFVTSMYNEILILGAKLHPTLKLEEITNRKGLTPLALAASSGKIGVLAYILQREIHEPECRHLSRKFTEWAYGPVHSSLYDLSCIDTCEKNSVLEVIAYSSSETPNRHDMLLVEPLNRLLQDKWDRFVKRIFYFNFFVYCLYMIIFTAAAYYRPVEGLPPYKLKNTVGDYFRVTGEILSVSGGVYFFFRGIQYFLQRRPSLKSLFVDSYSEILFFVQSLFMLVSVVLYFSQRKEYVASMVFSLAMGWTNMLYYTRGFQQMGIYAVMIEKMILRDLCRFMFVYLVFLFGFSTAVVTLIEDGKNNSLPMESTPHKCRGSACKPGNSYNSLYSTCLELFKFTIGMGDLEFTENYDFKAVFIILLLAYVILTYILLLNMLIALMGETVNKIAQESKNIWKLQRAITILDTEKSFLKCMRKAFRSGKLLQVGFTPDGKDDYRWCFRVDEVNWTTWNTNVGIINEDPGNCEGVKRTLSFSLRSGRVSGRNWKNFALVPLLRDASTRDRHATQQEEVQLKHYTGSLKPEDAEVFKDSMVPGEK

In the case of C#Cc1cc(CNC(=O)/C=C/c2ccc(C(F)(F)F)nc2OCCOC)cc(F)c1NS(C)(=O)=O [Example 75, N-(3-Ethynyl-5-fluoro-4-methanesulfonylamino-benzyl)-3-[2-(2-methoxy-ethoxy)-6-trifluoromethyl-pyridin-3-yl]-acrylamide], the “Stability HIM (% metabolized in human intestinal microsomes)” value [1] is reported as 17.0%, the “Stability RLM (% metabolized in rat liver microsomes)” value [2] is reported as 17.0% and the IC50 (vanilloid receptor; [4]) is reported as 370 nM.

For C=Cc1cc(CNC(=O)/C=C/c2ccc(C(C)(C)C)cc2)cc(F)c1NS(C)(=O)=O [Examples 16], the Cmax [3] was < 100 ng/mL and the IC50 (vanilloid receptor; [5]) was 47 nM.

For C=Cc1cc(CNC(=O)/C=C/c2ccc(C(C)(C)C)cc2N2CCOCC2)cc(F)c1NS(C)(=O)=O [Examples 22], the Cmax [3] was < 100 ng/mL.

In the case of C=Cc1cc(CNC(=O)/C=C/c2ccc(C(C)(C)C)cc2NC(C)C)cc(F)c1NS(C)(=O)=O [Examples 34], the Cmax [3] is reported as < 100 ng/mL.

For C#Cc1cc(CNC(=O)/C=C/c2ccc(C(C)(C)C)cc2N2CCOCC2)cc(F)c1NS(C)(=O)=O [drawing 350, reference compound], the AUC [3] was 706 ng·h/mL, the Cmax [3] was 334 ng/mL and the Tmax [3] was 2 h. For the same compound, the half-life [3] was 55.9 min and the IC50 (vanilloid receptor; [5]) was 860 nM.

C[C@@H](NC(=O)/C=C/c1ccc(C(F)(F)F)nc1Nc1ccccc1)c1ccc(NS(C)(=O)=O)c(F)c1 [Example 149, (R)—N-[1-(3-Fluoro-4-methanesulfonylamino-phenyl)-ethyl]-3-(2-phenylamino-6-trifluoromethyl-pyridin-3-yl)-acrylamide] showed an IC50 (vanilloid receptor; [4]) of 250 nM.

Cc1cc(CNC(=O)/C=C/c2ccc(C(F)(F)F)nc2CCc2ccccc2)cc(F)c1NS(C)(=O)=O [Example 173, N-(3-Fluoro-4-methanesulfonylamino-5-methyl-benzyl)-3-(2-phenethyl-6-trifluoromethyl-pyridin-3-yl)-acrylamide] showed an IC50 (vanilloid receptor; [4]) of 200 nM.

CCCCOc1nc(C(F)(F)F)ccc1CCC(=O)NCc1ccc(NS(C)(=O)=O)c(F)c1 [Example 86, 3-(2-Butoxy-6-trifluoromethyl-pyridin-3-yl)-N-(3-fluoro-4-methanesulfonylamino-benzyl)-propionamide] gave an IC50 (vanilloid receptor; [4]) of 1200 nM.

C#Cc1cc(CNC(=O)/C=C/c2cc(Cl)c(C(F)(F)F)nc2CCCC)cc(F)c1NS(C)(=O)=O [Example 76, 3-(2-Butyl-5-chloro-6-trifluoromethyl-pyridin-3-yl)-N-(3-ethynyl-5-fluoro-4-methanesulfonylamino-benzyl)-acrylamide] gave an IC50 (vanilloid receptor; [4]) of 200 nM.

In the case of CCC/C(=C\C(=O)NCc1ccc(NS(C)(=O)=O)c(Cl)c1)c1ccc(C(F)(F)F)nc1CCC [Example 272], the IC50 (vanilloid receptor; [4]) is reported as 740 nM.

With C#Cc1cc(CNC(=O)/C=C/c2ccc(C(F)(F)F)nc2CCC)cc(F)c1NS(C)(=O)=O [Example 206, N-(3-Ethynyl-5-fluoro-4-methanesulfonylamino-benzyl)-3-(2-propyl-6-trifluoromethyl-pyridin-3-yl)-acrylamide] the AUC [3] was 25900 ng·h/mL, the Cmax [3] was 5500 ng/mL and the Tmax [3] was 3.5 h. The half-life [3] was 85.4 min and the IC50 (vanilloid receptor; [4]) was 40 nM.

Compound CC(C)Cc1nc(C(F)(F)F)ccc1/C=C/C(=O)N[C@H](C)c1cc(F)c(NS(C)(=O)=O)c(F)c1 [Example 245, (R)—N-[1-(3,5-Difluoro-4-methanesulfonylamino-phenyl)-ethyl]-3-(2-isobutyl-6-trifluoromethyl-pyridin-3-yl)-acrylamide] has an IC50 (vanilloid receptor; [4]) of 24 nM.

CCN(CC)c1nc(C(F)(F)F)ccc1/C=C/C(=O)NCc1ccc(NS(C)(=O)=O)c(F)c1 [Example 47, 3-(2-Diethylamino-6-trifluoromethyl-pyridin-3-yl)-N-(3-fluoro-4-methanesulfonylamino-benzyl)-acrylamide] showed an IC50 (vanilloid receptor; [4]) of 960 nM.

CCC/C(=C/C(=O)NCc1ccc(NS(C)(=O)=O)c(Cl)c1)c1ccc(C(F)(F)F)nc1CCC [Example 271] showed an IC50 (vanilloid receptor; [4]) of 1300 nM.

With CCCCNc1nc(C(F)(F)F)ccc1/C=C/C(=O)NCc1ccc(NS(C)(=O)=O)c(C)c1 [Example 187, N-(4-Methanesulfonylamino-3-methyl-benzyl)-3-(2-butylamino-6-trifluoromethyl-pyridin-3-yl)-acrylamide] the IC50 (vanilloid receptor; [4]) was 75 nM.

C#Cc1cc(CNC(=O)/C=C/c2ccc(C(F)(F)F)nc2Nc2ccccc2)cc(F)c1NS(C)(=O)=O [Example 113, N-(3-Ethynyl-5-fluoro-4-methanesulfonylamino-benzyl)-3-(2-phenylamino-6-trifluoromethyl-pyridin-3-yl)-acrylamide] showed an IC50 (vanilloid receptor; [4]) of 270 nM.

CCCNc1nc(C(F)(F)F)ccc1/C=C/C(=O)NCc1cc(C)c(NS(C)(=O)=O)c(F)c1 [Example 223, N-(3-Fluoro-4-methanesulfonylamino-5-methyl-benzyl)-3-(2-propylamino-6-trifluoromethyl-pyridin-3-yl)-acrylamide] gave an IC50 (vanilloid receptor; [4]) of 55 nM.

Compound CCC(C)Nc1nc(C(F)(F)F)ccc1/C=C/C(=O)NCc1cc(C)c(NS(C)(=O)=O)c(F)c1 (stereo not drawn) [Example 130, 3-(2-sec-Butylamino-6-trifluoromethyl-pyridin-3-yl)-N-(3-fluoro-4-methanesulfonylamino-5-methyl-benzyl)-acrylamide] has an IC50 (vanilloid receptor; [4]) of 54 nM.

CCC(C)Nc1nc(C(F)(F)F)ccc1/C=C/C(=O)NCc1ccc(NS(C)(=O)=O)c(F)c1 (stereo not drawn) [Example 123, 3-(2-sec-Butylamino-6-trifluoromethyl-pyridin-3-yl)-N-(3-fluoro-4-methanesulfonylamino-benzyl)-acrylamide] showed an IC50 (vanilloid receptor; [4]) of 93 nM.

In the case of CS(=O)(=O)Nc1ccc(CNC(=O)/C=C/c2ccc(N3CCCC3)nc2)cc1F [Example 25, N-(3-Fluoro-4-methanesulfonylamino-benzyl)-3-(6-pyrrolidin-1-yl-pyridin-3-yl)-acrylamide], the IC50 (vanilloid receptor; [4]) is reported as > 10000 nM.

With CCC(C)Nc1nc(C(F)(F)F)ccc1/C=C/C(=O)N[C@H](C)c1ccc(NS(C)(=O)=O)c(F)c1 (stereo partly drawn) [Example 210, (R)-3-(2-sec-Butylamino-6-trifluoromethyl-pyridin-3-yl)-N-[1-(3-fluoro-4-methanesulfonylamino-phenyl)-ethyl]-acrylamide] the IC50 (vanilloid receptor; [4]) was 22 nM.

Work on C#Cc1cc(CNC(=O)/C=C/c2ccc(C(C)(C)C)nc2OC)cc(F)c1NS(C)(=O)=O [Example 11, 3-(6-tert-Butyl-2-methoxy-pyridin-3-yl)-N-(3-ethynyl-5-fluoro-4-methanesulfonylamino-benzyl)-acrylamide] yielded an IC50 (vanilloid receptor; [4]) of 290 nM.

With CS(=O)(=O)Nc1c(F)cc(CNC(=O)/C=C/c2ccc(C(F)(F)F)nc2-c2cccc(F)c2)cc1C#N [Example 136, N-(3-Cyano-5-fluoro-4-methanesulfonylamino-benzyl)-3-[2-(3-fluoro-phenyl)-6-trifluoromethyl-pyridin-3-yl]-acrylamide] the IC50 (vanilloid receptor; [4]) was 900 nM.

C#Cc1cc(CNC(=O)/C=C/c2ccc(C(F)(F)F)nc2CC(C)C)cc(F)c1NS(C)(=O)=O [Example 148, N-(3-Ethynyl-5-fluoro-4-methanesulfonylamino-benzyl)-3-(2-isobutyl-6-trifluoromethyl-pyridin-3-yl)-acrylamide] gave an IC50 (vanilloid receptor; [4]) of 51 nM.

CCCNc1nc(C(F)(F)F)ccc1/C=C/C(=O)N[C@H](C)c1ccc(NS(C)(=O)=O)c(F)c1 [Example 224, (R)—N-[1-(3-Fluoro-4-methanesulfonylamino-phenyl)-ethyl]-3-(2-propylamino-6-trifluoromethyl-pyridin-3-yl)-acrylamide] gave an IC50 (vanilloid receptor; [4]) of 16 nM.

In the case of C#Cc1cc(CNC(=O)/C=C/c2ccc(C(F)(F)F)nc2)cc(F)c1NS(C)(=O)=O [Example 57, N-(3-Ethynyl-5-fluoro-4-methanesulfonylamino-benzyl)-3-(6-trifluoromethyl-pyridin-3-yl)-acrylamide], the AUC [3] is reported as 56500 ng·h/mL, the Cmax [3] is reported as 2200 ng/mL and the Tmax [3] is reported as 0.833 h. For the same compound, the half-life [3] was 237 min, the IC50 (vanilloid receptor; [5]) was > 10000 nM and the IC50 (vanilloid receptor; [4]) was > 10000 nM.

For C#Cc1cc(CNC(=O)/C=C/c2ccc(C(F)(F)F)nc2CC)cc(F)c1NS(C)(=O)=O [Example 150, 3-(2-Ethyl-6-trifluoromethyl-pyridin-3-yl)-N-(3-ethynyl-5-fluoro-4-methanesulfonylamino-benzyl)-acrylamide], the IC50 (vanilloid receptor; [4]) was 210 nM.

Work on C#Cc1cc(CNC(=O)/C=C/c2ccc(C(F)(F)F)nc2CC(C)CC)cc(F)c1NS(C)(=O)=O (stereo not drawn) [Example 152, N-(3-Ethynyl-5-fluoro-4-methanesulfonylamino-benzyl)-3-[2-(2-methyl-butyl)-6-trifluoromethyl-pyridin-3-yl]-acrylamide] yielded an IC50 (vanilloid receptor; [4]) of 43 nM.

CC(C)Oc1nc(C(F)(F)F)ccc1/C=C/C(=O)NCc1cc(F)c(NS(C)(=O)=O)c(C#N)c1 [Example 109, N-(3-Cyano-5-fluoro-4-methanesulfonylamino-benzyl)-3-(2-isopropoxy-6-trifluoromethyl-pyridin-3-yl)-acrylamide] showed an IC50 (vanilloid receptor; [4]) of 150 nM.
